These results are taken from ChEMBL document CHEMBL4673197, “Microwave-assisted green synthesis of bile acid derivatives and evaluation of glucocorticoid receptor binding” (RSC Med Chem, 2021).

The structures appear in SMILES notation. Calls of active or inactive are those of the source. The rule behind the calls is not given here.

Holding throughout (assay type): cell-based
The target of test [1] is T1, Glucocorticoid receptor (Rattus norvegicus) (UniProt P06536).
T1 sequence (whole entry): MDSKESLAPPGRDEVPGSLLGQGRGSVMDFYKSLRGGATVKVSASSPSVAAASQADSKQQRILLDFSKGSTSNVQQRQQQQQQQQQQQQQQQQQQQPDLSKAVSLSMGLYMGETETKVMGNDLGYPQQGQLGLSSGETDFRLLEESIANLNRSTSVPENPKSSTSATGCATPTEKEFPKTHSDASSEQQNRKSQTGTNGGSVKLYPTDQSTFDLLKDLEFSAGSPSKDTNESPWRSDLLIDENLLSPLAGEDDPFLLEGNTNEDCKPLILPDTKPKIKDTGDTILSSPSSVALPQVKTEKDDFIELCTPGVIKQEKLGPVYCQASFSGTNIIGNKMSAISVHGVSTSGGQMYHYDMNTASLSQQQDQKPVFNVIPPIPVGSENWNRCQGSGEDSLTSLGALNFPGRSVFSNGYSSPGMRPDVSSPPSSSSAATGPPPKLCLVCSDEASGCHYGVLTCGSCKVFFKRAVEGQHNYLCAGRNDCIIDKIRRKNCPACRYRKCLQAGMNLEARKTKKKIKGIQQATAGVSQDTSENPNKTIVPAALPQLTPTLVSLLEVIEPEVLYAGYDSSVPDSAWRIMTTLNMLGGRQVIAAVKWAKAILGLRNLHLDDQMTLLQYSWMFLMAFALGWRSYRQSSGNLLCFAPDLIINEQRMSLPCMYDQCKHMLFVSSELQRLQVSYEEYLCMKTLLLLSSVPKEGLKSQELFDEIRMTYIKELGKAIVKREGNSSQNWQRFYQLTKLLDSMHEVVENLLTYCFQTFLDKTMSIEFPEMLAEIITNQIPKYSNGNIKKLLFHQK
As to the kind of experiment: Binding affinity to enhanced YFP tagged rat glucocorticoid receptor (497-795)-LBD expressed in Saccharomyces cerevisiae FY250 cells by measuring fluorescence changes incubated at 100 uM for 15 hrs by fluorescence spectroscopy.

Test [2] deals with T1, Glucocorticoid receptor (Rattus norvegicus). Put plainly: Binding affinity to enhanced YFP tagged rat glucocorticoid receptor (497-795)-LBD expressed in Saccharomyces cerevisiae FY250 cells by measuring increase in fluorescence intensity incubated at 100 uM for 15 hrs by fluorescence microscopy.
The target is the same in test [3]. Put plainly: Binding affinity to enhanced YFP tagged rat glucocorticoid receptor (497-795)-LBD expressed in Saccharomyces cerevisiae FY250 cells by measuring fluorescence changes incubated for 15 hrs by fluorescence spectroscopy.

In the case of `C[C@H](CCC(=O)Nc1ccccc1)[C@H]1CC[C@H]2[C@@H]3CC[C@@H]4C[C@H](O)CC[C@]4(C)[C@H]3C[C@H](O)[C@]12C`, the result in test [1] and in test [2] was Active.

Turning to `C[C@]12C=CC(=O)C=C1CC[C@@H]1[C@@H]2[C@@H](O)C[C@@]2(C)[C@H]1CC[C@]2(O)C(=O)CO`, the Activity entry in test [3] is “Dose-dependent effect”. The result in test [2] was Active.

With `C[C@H](CCC(=O)O)[C@H]1CC[C@H]2[C@@H]3CC[C@@H]4CCCC[C@]4(C)[C@H]3CC[C@]12C`, the outcome in test [1] and in test [2] was Active.
